Test results published in paper PMC3605789 (Nature communications, 2013).

Target: T1, inositol monophosphatase (IMPase) (Homo sapiens, UniProt P29218)
T1 sequence (P29218 1-277): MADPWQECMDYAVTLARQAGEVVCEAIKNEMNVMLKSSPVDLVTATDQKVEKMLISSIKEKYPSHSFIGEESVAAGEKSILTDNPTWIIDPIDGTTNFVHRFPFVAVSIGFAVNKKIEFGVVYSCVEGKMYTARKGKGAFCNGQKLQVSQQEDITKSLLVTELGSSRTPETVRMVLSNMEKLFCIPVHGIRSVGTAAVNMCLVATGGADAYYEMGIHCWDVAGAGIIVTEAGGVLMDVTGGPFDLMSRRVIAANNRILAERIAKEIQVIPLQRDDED
Assay: electrospray mass spectrometry of the covalent complex
Assay type: biochemical

Q: `O=c1c2ccccc2[se]n1-c1ccccc1` [ebselen] was tested. Which IC50 did it give?
A: 1.5 µM
